Test [1] has as its system SARS-CoV-2. In words: microbe, parasite or virus in culture. It counts as cell-based. The following applies: Severe acute respiratory syndrome coronavirus 2, VeroE6/TMPRSS2, 72 h, 50% SARS-CoV-2 infected cell death inhibitory concentration, VeroE6/TMPRSS2 cells, 3 days culture.
The target in test [2] is SARS-CoV-2 3CL protease (Severe acute respiratory syndrome coronavirus 2, UniProt P0DTD1). Put plainly: biochemical. The following applies: 50% SARS-CoV-2 3CL protease inhibitory concentration, read-out: IC50.

As a reminder, the pEC50 is the EC50 on a negative log10 scale, so that one unit is a factor of ten. Low readings indicate a high EC50, high ones a low EC50. For orientation: pIC50 means the IC50 on a negative log10 scale, so that one unit is a factor of ten.

pEC50, pIC50: −log10 of the molar value. Like-named read-outs stand apart in the source and are kept apart here.

The molecule `Cc1cncc(-n2c(=O)nc(N3CC4CCC3CC4)n(Cc3cc(F)c(F)c(F)c3)c2=O)c1` [II-0369] showed a pEC50 in test [1] (CellTiter-Glo 2.0) of 5.94. In addition, the pIC50 in test [2] (RapidFire MS) was 6.20.

For the molecule `Cc1cncc(-n2c(=O)nc(Nc3cc4cn(C)nc4cc3Cl)n(Cc3cc(F)c(F)cc3C#N)c2=O)c1` [II-0070], the pEC50 in test [1] (class symbols) was 5.00 to 6.00. For the same molecule, the pIC50 in test [2] (given as class symbols) was more than 7.00.

`COc1ccc(Nc2nc(=O)n(Cc3cc(N4CCCC4)c[nH]c3=O)c(=O)n2Cc2cc(F)c(F)c(F)c2)cc1` [II-0014] gave a pEC50 in test [1] (CellTiter-Glo 2.0) of 4.66. Also, the pIC50 in test [2] (RapidFire MS) was 5.62.

In test [1] (class symbols), `O=c1nc(Nc2cc3cn(CCO)nc3cc2Cl)n(Cc2cc(F)c(F)c(Cl)c2)c(=O)n1Cc1ncccn1` [II-0294] had a pEC50 of 5.00 to 6.00. Besides, in test [2] (given as class symbols), the pIC50 is more than 7.00.

With `CCc1cncc(-n2c(=O)nc(Nc3ccc4nn(C)cc4c3)n(Cc3ccc(F)c(C#N)c3)c2=O)c1` [II-0390], the pEC50 in test [1] (class symbols) is 5.00 to 6.00. In addition, the pIC50 in test [2] (given as class symbols) is more than 7.00.

In test [1] (class symbols), `Cc1cncc(-n2c(=O)nc(Nc3cc4c(cc3F)nc(C)n4C)n(Cc3ccc(F)c(C#N)c3)c2=O)c1` [II-0353] had a pEC50 of 5.00 to 6.00. For the same molecule, the pIC50 in test [2] (given as class symbols) was more than 7.00.

For the molecule `COc1ccc(Nc2nc(=O)n(Cc3ccc[nH]c3=O)c(=O)n2Cc2cc(F)c(F)cc2Cl)cc1` [Compound I-0194], the pEC50 in test [1] (class symbols) was 5.00 to 6.00. In addition, the pIC50 in test [2] (given as class symbols) was more than 7.00.

In turn, `Cc1cncc(-n2c(=O)nc(Nc3cc4cn(C)nc4cc3Cl)n(Cc3cc(F)cc(F)c3)c2=O)c1` [II-0201] had a pEC50 in test [1] (class symbols) of more than 6.00. Besides, in test [2] (given as class symbols), the pIC50 is more than 7.00.

`N#Cc1cc(Cn2c(Nc3ccc4nn(CC(F)F)cc4c3)nc(=O)n(-c3cncc(Cl)c3)c2=O)ccc1F` [II-0415] showed a pEC50 in test [1] (CellTiter-Glo 2.0) of 6.06. For the same molecule, the pIC50 in test [2] (RapidFire MS) is 7.82.

Regarding `N#Cc1cc(Cn2c(Nc3ccc4ncccc4c3)nc(=O)n(-c3cncc4ccccc34)c2=O)ccc1F` [II-0200], in test [1] (class symbols), the pEC50 was 5.00 to 6.00. The pIC50 in test [2] (given as class symbols) is more than 7.00.

`Cn1cnc(Cn2c(=O)nc(Nc3cc4cn(C)nc4cc3Cl)n(Cc3cc(C#N)c(F)cc3Cl)c2=O)n1` [II-0088] showed a pEC50 in test [1] (class symbols) of 5.00 to 6.00. Besides, the pIC50 in test [2] (given as class symbols) is more than 7.00.

Regarding `Cn1cnc(Cn2c(=O)nc(Nc3cc4cn(CC5CCO5)nc4cc3Cl)n(Cc3cc(Cl)c(F)cc3F)c2=O)n1` (racemic) [II-0408], the negative logarithm of the EC50 (pEC50) in test [1] (class symbols) was 5.00 to 6.00. Also, in test [2] (given as class symbols), the pIC50 is more than 7.00.

In test [1] (class symbols), `CNc1nc2cc(Cl)c(Nc3nc(=O)n(-c4cncc(C)c4)c(=O)n3Cc3cc(C#N)ccc3C)cc2s1` [II-0395] showed a pEC50 of more than 6.00. For the same molecule, the pIC50 in test [2] (given as class symbols) is more than 7.00.

The molecule `Cn1cnc(Cn2c(=O)nc(Nc3cc4cn(CC(F)F)nc4cc3Cl)n(Cc3cc(F)c(F)cc3F)c2=O)n1` [II-0163] gave a pEC50 in test [1] (CellTiter-Glo 2.0) of 6.47. Also, in test [2] (RapidFire MS), the pIC50 is 8.06.

In test [1] (class symbols), `O=c1[nH]cc(Cl)cc1Cn1c(=O)nc(Nc2cc3cn(CCN4CCOCC4)nc3cc2Cl)n(Cc2cc(F)c(F)c(F)c2)c1=O` [Compound I-0250] gave a negative logarithm of the EC50 (pEC50) of 5.00 to 6.00. Besides, in test [2] (given as class symbols), the pIC50 was more than 7.00.

As to `Cn1cc2cc(Nc3nc(=O)n(Cc4ccc[nH]c4=O)c(=O)n3Cc3ccc(F)c(C#N)c3)c(Cl)cc2n1` [Compound I-0267], the negative logarithm of the EC50 (pEC50) in test [1] (class symbols) was 5.00 to 6.00. Moreover, the negative logarithm of the IC50 (pIC50) in test [2] (given as class symbols) is more than 7.00.

In test [1] (class symbols), `COc1ccc(Nc2nc(=O)n(Cc3cc4cccnc4[nH]c3=O)c(=O)n2Cc2cc(F)c(F)c(F)c2)cc1` [Compound I-0084] showed a pEC50 of 5.00 to 6.00. Further, the pIC50 in test [2] (given as class symbols) was more than 7.00.

As to `Cc1cncc(-n2c(=O)nc(Nc3cc4c(cc3Cl)nc3n4CCN3)n(Cc3cc(Cl)c(F)cc3F)c2=O)c1` [II-0279], the pEC50 in test [1] (class symbols) is 5.00 to 6.00. For the same molecule, the pIC50 in test [2] (given as class symbols) is more than 7.00.

In test [1] (class symbols), `CCCc1cc(F)c(F)cc1Cn1c(Nc2cc3cn(C)nc3cc2Cl)nc(=O)n(-c2cncc(C)c2)c1=O` [II-0069] gave a negative logarithm of the EC50 (pEC50) of 5.00 to 6.00. Besides, the negative-log IC50 (pIC50) in test [2] (given as class symbols) is more than 7.00.

As for `Cc1cncc(-n2c(=O)nc(Nc3cc4cn(C)nc4cc3Cl)n(Cc3cc(Cl)ccc3C#N)c2=O)c1` [II-0426], the pEC50 in test [1] (class symbols) was more than 6.00. For the same molecule, the negative logarithm of the IC50 (pIC50) in test [2] (given as class symbols) is more than 7.00.

`O=c1[nH]cccc1Cn1c(=O)nc(Nc2ccc(OCC(F)F)cc2Cl)n(Cc2cc(F)c(F)c(F)c2)c1=O` [Compound I-0095] showed a pEC50 in test [1] (class symbols) of 5.00 to 6.00. Further, the pIC50 in test [2] (given as class symbols) was more than 7.00.

Regarding `Cc1cncc(-n2c(=O)nc(Nc3cc4cn(C)nc4cc3Cl)n(Cc3ccc(F)c(Br)c3)c2=O)c1` [II-0597], the pEC50 in test [1] (class symbols) is more than 6.00. The pIC50 in test [2] (given as class symbols) is more than 7.00.

In the case of `CNc1nc2cc(Cl)c(Nc3nc(=O)n(-c4cncc(C)c4)c(=O)n3Cc3cc(Cl)c(F)cn3)cc2s1` [II-0589], in test [1] (class symbols), the pEC50 is 5.00 to 6.00. Further, the pIC50 in test [2] (given as class symbols) is more than 7.00.

Consider `CNc1nc2cc(Cl)c(Nc3nc(=O)n(-c4cncc(Cl)c4)c(=O)n3Cc3cc(C#N)c(F)cn3)cc2s1` [II-0126], for which, in test [1] (class symbols), the pEC50 is 5.00 to 6.00. Besides, the pIC50 in test [2] (given as class symbols) is more than 7.00.

In test [1] (class symbols), `N#Cc1cc(Cn2c(Nc3ccc4c(c3)CCO4)nc(=O)n(-c3cncc(Cl)c3)c2=O)ccc1F` [Compound I-0348] had a pEC50 of more than 6.00. For the same molecule, in test [2] (given as class symbols), the pIC50 was more than 7.00.

These data come from patent publication US12559474B2, “Triazine derivatives having virus replication inhibitory activity and pharmaceutical composition comprising the same” (priority 2021, dated 2026).
